Source: patent publication US10968210B2, “Diamino-alkylamino-linked arylsulfonamide compounds with selective activity in voltage-gated sodium channels” (Merck Sharp & Dohme Corp., priority 2016, dated 2021)

Legend:
[1] = biological target: T1, human Nav 1.5 channels stably expressed in HEK 293 cells (Homo sapiens, UniProt Q14524); assay: IonWorks Quattro automated patch-clamp, inactivated state block of Nav 1.5 (reported as ratio to Nav 1.7 potency); assay type: cell-based; settings: selectivity for Nav 1.7 over Nav 1.5, both by IonWorks
T1 construct: expressed in transfected cells; host or cells: HEK 293
T1 sequence (Q14524 whole entry): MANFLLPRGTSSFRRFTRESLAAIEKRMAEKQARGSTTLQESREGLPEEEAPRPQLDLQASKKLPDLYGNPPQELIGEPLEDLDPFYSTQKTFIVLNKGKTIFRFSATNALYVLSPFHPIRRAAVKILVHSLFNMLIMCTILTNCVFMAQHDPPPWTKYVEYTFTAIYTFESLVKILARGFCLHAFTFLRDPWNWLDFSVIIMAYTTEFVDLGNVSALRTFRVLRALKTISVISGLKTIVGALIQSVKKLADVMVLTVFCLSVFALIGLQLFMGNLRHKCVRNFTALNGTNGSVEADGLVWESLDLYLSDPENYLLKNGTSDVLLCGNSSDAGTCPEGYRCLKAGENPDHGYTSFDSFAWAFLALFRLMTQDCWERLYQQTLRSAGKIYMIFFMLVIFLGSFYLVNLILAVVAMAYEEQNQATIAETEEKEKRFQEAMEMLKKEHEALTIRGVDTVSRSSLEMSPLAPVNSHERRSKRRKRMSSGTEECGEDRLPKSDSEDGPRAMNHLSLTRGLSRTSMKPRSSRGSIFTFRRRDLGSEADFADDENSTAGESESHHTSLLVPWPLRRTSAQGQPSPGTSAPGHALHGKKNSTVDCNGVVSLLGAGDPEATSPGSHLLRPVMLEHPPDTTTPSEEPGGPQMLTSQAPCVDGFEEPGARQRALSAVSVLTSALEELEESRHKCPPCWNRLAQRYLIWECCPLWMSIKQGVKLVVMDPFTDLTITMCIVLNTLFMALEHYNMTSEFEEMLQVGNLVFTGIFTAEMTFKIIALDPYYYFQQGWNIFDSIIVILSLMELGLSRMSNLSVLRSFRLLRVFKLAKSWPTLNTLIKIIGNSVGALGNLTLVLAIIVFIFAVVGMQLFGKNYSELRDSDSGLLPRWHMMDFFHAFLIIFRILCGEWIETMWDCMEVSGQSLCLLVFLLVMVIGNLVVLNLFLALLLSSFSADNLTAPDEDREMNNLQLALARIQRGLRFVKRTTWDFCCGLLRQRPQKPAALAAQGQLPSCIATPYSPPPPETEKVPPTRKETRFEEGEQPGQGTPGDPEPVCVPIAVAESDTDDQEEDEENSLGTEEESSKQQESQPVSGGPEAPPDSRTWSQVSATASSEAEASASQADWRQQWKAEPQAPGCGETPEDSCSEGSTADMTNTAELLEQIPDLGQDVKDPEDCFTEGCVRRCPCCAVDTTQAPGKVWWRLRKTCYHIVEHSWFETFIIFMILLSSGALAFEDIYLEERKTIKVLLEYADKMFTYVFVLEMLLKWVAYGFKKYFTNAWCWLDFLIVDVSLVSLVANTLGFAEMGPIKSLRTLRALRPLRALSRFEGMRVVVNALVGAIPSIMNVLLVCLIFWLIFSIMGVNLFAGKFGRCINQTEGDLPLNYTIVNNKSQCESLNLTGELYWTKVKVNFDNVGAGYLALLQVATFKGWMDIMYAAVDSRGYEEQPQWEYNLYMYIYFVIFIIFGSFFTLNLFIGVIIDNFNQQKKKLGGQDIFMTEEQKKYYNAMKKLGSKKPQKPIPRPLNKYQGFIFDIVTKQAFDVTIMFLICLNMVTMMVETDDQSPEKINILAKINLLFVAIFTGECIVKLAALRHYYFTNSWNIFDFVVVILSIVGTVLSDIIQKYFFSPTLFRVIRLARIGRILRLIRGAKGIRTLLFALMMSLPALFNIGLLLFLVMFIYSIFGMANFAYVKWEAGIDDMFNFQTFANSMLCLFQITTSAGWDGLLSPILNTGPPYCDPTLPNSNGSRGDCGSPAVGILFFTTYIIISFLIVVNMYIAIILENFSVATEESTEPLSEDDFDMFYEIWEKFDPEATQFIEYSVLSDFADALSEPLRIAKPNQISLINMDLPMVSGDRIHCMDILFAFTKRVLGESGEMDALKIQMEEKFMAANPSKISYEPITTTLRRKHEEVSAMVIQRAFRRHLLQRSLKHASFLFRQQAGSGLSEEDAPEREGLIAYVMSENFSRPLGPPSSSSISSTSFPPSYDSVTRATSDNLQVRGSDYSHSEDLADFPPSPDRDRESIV
Procedure: (§1) IonWorks® Experimental Procedure
(§2) Compounds were tested on human Nav 1.7 and Nav 1.5 channels stably expressed in HEK 293 cells. Sodium current measurements on IonWorks Quattro: An automated patch-clamp assay on the IonWorks Quattro platform (Molecular Devices) was used to measure state-dependent inhibition of human Nav 1.7 and Nav 1.5 channels. Cells were sealed on a planar substrate using the Population Patch Plate (PPC) technology. Electrical access was obtained using both nystatin and amphotericin. A double-pulse protocol was used for the determination of IC50 values for inactivated state block. Nav 1.7 and Nav 1.5 expressing cells were voltage clamped at −100 mV and −110 mV, respectively. A depolarizing prepulse to −10 mV (Nav 1.7) or −30 mV (Nav 1.5) for 1000 ms followed by a 10 ms repolarization to ˜100 mV (Nav1.7) or −110 mV (Nav 1.5) was given to generate fractional channel inactivation of ˜50%, followed by a 10 ms test pulse to −10 mV (Nav 1.7) or −30 mV (Nav 1.5) to measure peak current in control conditions and after compound addition. The following recording solutions were used (mM). External: 150 NaCl, 2 CaCl2, 5 KCl, 1 Mg Cl2, 10 HEPES, 12 Dextrose; internal: 120 CsF, 30 CsCl, 10 EGTA, 5 HEPES, 5 NaF, 2 MgCl2.
(§3) For all electrophysiology experiments, offline analysis was used to determine percent inhibition as a function of drug concentration. IC50 values were determined by fitting to the Hill equation.
(§4) The various compounds in Examples 1 through 4 and Tables 1 through 3 exemplified above were assayed for activity and selectivity using the foregoing IonWorks® technique. The results are reported in the following paragraph in a format expressing the identification of the compound with reference Example and compound (e.g. Ex 1-9 is Example 1, compound 9) followed by the observed potency in nM and the ratio of Nav1.7 potency: Nav1.5 potency as described here. Thus, Ex1-9: 1.7=65/ratio=641 identifies compound Example 1, compound 9 as having 65 nM potency for the Nav 1.7 sodium ion channel (as measured by IonWorks®) and a ratio of 641 Nav 1.7: Nav 1.5 potency, determined by IonWorks® measurement.

[2] = biological target: T2, human Nav 1.7 channels stably expressed in HEK 293 cells (Homo sapiens, UniProt Q15858); assay: IonWorks Quattro automated patch-clamp, inactivated state block of Nav 1.7; assay type: cell-based; settings: double-pulse protocol, HEK 293 cells held at -100 mV, read-out: potency for the Nav 1.7 sodium ion channel (IC50, IonWorks)
T2 construct: expressed in transfected cells; host or cells: HEK 293
T2 sequence (Q15858 whole entry): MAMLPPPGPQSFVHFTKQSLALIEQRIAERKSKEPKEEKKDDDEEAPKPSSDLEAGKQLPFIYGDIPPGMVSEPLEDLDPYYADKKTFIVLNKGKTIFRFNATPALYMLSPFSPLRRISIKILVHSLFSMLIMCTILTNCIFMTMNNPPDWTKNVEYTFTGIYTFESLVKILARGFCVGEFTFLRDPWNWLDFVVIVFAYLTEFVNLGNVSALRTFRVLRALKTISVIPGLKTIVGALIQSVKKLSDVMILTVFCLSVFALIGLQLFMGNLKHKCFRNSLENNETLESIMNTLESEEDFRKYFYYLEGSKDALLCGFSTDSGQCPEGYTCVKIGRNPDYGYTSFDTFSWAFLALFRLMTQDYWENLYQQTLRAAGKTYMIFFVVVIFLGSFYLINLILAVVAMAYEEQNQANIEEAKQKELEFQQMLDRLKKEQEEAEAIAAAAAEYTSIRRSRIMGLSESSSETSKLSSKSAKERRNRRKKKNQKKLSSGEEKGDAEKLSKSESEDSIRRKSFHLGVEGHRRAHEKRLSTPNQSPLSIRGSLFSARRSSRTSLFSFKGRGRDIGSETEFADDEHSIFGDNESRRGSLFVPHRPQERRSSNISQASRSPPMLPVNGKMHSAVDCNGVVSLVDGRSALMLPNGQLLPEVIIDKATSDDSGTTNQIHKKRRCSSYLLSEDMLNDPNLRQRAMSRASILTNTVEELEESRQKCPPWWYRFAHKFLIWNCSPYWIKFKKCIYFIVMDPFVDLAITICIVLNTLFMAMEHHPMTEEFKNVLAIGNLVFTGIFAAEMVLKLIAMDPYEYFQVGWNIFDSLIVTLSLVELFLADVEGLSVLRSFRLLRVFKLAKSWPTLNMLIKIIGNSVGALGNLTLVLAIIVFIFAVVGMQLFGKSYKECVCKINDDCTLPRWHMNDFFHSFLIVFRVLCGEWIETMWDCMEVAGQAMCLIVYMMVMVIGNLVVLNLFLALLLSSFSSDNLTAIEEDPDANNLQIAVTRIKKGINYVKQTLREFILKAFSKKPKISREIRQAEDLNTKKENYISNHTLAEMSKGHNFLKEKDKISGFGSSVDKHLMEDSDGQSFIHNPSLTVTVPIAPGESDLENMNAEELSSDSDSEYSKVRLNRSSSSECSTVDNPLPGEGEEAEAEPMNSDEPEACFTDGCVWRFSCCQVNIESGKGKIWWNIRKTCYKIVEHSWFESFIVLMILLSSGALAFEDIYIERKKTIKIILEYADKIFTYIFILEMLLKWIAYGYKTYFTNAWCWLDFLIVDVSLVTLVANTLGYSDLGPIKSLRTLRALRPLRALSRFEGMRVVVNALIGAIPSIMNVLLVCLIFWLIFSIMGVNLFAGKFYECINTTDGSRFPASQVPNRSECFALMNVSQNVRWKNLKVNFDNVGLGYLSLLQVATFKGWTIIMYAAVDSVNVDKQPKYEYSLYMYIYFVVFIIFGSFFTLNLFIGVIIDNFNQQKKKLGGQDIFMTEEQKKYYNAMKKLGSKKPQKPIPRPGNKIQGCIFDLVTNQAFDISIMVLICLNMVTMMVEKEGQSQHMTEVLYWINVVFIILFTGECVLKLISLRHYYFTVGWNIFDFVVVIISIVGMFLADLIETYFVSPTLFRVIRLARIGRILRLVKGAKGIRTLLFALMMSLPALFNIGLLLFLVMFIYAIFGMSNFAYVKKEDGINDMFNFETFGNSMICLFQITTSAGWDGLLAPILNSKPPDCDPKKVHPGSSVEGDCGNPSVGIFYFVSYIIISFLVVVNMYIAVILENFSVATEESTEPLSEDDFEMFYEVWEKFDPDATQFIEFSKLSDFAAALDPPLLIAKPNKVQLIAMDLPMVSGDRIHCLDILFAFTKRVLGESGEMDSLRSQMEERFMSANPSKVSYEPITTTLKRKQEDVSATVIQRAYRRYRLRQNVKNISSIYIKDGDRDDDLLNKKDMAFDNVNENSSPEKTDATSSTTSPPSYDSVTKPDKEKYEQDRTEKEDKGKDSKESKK
Procedure: as §1, §2, §3, §4

| SMILES | ratio of Nav 1.7 : Nav 1.5 potency (IonWorks) [1] | IC50 [2] |
| --- | --- | --- |
| O=S(=O)(Nc1nccs1)c1cc(Cl)c(NC[C@H]2C[C@@H]3CN(C[C@@H]4CCCN4)C[C@@H]3C2)cc1F [Ex 6-8, 5-chloro-2-fluoro-4-[({(3aR,5R,6aS)-2-[(2S)-pyrrolidin-2-ylmethyl]octahydrocyclopenta[c]pyrrol-5-yl}methyl)amino]-N-1,3-thiazol-2-ylbenzenesulfonamide] | > 850 | 39 nM |
| CNCCNCCCCNc1cc(F)c(S(=O)(=O)Nc2ncns2)cc1F [Ex 16-47, 2,5-difluoro-4-[(4-{[2-(methylamino)ethyl]amino}-butyl)amino]-N-1,2,4-thiadiazol-5-ylbenzene-sulfonamide] | > 460 | 74 nM |
| CO[C@H]1CN[C@H](CNCCCCNc2cc(F)c(S(=O)(=O)Nc3nccs3)cc2Cl)C1 [Ex 8-16] | > 520 | 63 nM |
| CNCCNCCCCNc1cc(F)c(S(=O)(=O)Nc2nc(C)cs2)cc1Cl [Ex 16-51, 5-chloro-2-fluoro-4-[(4-{[2-(methylamino)ethyl]amino}-butyl)amino]-N-(4-methyl-1,3-thiazol-2-yl)benzene-sulfonamide] | > 943 | 35 nM |
| O=S(=O)(Nc1nccs1)c1cc(Cl)c(NCCCCCNCC2CCCNC2)cc1F (stereo not drawn) [Ex 9-04, 5-chloro-2-fluoro-4-({5-[(piperidin-3-ylmethyl)-amino]-pentyl}amino)-N-1,3-thiazol-2-yl-benzenesulfonamide] | > 1320 | 25 nM |
| N[C@@H]1CCCN(CCCCNc2cc(F)c(S(=O)(=O)Nc3nccs3)cc2Cl)C1 [Ex 1-35, 4-({4-[(3R)-3-aminopiperidin-1-yl]butyl}amino)-5-chloro-2-fluoro-N-1,3-thiazol-2-ylbenzenesulfonamide] | > 170 | 190 nM |
| NC[C@H]1CCCN1CCCCNc1cc(F)c(S(=O)(=O)Nc2nccs2)cc1Cl [Ex 1-41, 4-({4-[(2R)-2-(aminomethyl)pyrrolidin-1-yl]butyl}amino)-5-chloro-2-fluoro-N-1,3-thiazol-2-ylbenzenesulfonamide] | > 690 | 48 nM |
| NCC1CN(CCCCNc2cc(F)c(S(=O)(=O)Nc3nccs3)cc2Cl)C1 [Ex 1-51, 4-({4-[3 (aminomethyl)azetidin-1-yl]butyl}amino)-5-chloro-2-fluoro-N-1,3-thiazol-2-ylbenzenesulfonamide] | > 2200 | 15 nM |
| O=S(=O)(Nc1nccs1)c1cc(Cl)c(NCCCCCNCC2CCN2)cc1F (stereo not drawn) [Ex 9-06, 4-({5-[(azetidin-2-ylmethyl)amino]-pentyl}amino)-5-chloro-2-fluoro-N-1,3-thiazol-2-yl-benzenesulfonamide] | > 160 | 200 nM |
| COc1cccc(CC2(CNCCCCNc3cc(F)c(S(=O)(=O)Nc4nccs4)cc3Cl)CCCN2)c1 (stereo not drawn) [Ex 1-34, 5-chloro-2-fluoro-4-{[4-({[2-(3-methoxy-benzyl)-pyrrolidin-2-yl]methyl}-amino)-butyl]amino}-N-1,3-thiazol-2-yl-benzenesulfonamide] | > 510 | 64 nM |
| O=S(=O)(Nc1nccs1)c1cc(Cl)c(NCCCCNC[C@@H]2CC(F)(F)CN2)cc1F [Ex 8-2, (S)-5-chloro-4-((4-(((4,4-difluoropyrrolidin-2-yl)methyl)amino)butyl)amino)-2-fluoro-N-(thiazol-2-yl)benzenesulfonamide] | 460 | 59 nM |
| O=S(=O)(Nc1nccs1)c1cc(Cl)c(NCCCCN2CCC3(CCCN3)CC2)cc1F [Ex 1-14, 5-chloro-4-{[4-(1,8-diazaspiro[4.5]dec-8-yl)butyl]amino}-2-fluoro-N-1,3-thiazol-2-ylbenzenesulfonamide] | > 870 | 38 nM |
| O=S(=O)(Nc1nccs1)c1cc(Cl)c(NCCCCN2C[C@H]3CNCC[C@H]3C2)cc1F [Ex 1-23, 5-chloro-2-fluoro-4-({4-[(3aR,7aR)-octahydro-2H-pyrrolo[3,4-c]pyridin-2-yl]butyl}amino)-N-1,3-thiazol-2-ylbenzenesulfonamide] | > 770 | 43 nM |
| COc1ccc(CC2(CNCCCCNc3cc(F)c(S(=O)(=O)Nc4nccs4)cc3Cl)CCCN2)cc1 (single isomer, unassigned) [Ex 1-16 Enantiomer A, (S or R)-5-chloro-2-fluoro-4-{[4-({[2-(4-methoxybenzyl)pyrrolidin-2-yl]methyl}amino)butyl]amino}-N-1,3-thiazol-2-ylbenzenesulfonamide] | 50 | 240 nM |
| O=S(=O)(Nc1nccs1)c1cc(Cl)c(NCCCCNC[C@H]2C[C@@H](c3ccccc3)CN2)cc1F [Ex 8-11, 5-chloro-2-fluoro-4-{[4-({[(2R,4S)-4-phenylpyrrolidin-2-yl]-methyl}amino)butyl]amino}-N-1,3-thiazol-2-yl-benzenesulfonamide] | > 2360 | 14 nM |
| O=S(=O)(Nc1nccs1)c1cc(Cl)c(NCCCCN[C@H]2[C@@H]3CC[C@H]2NC3)cc1F [Ex 1-17, 4-({4-[(1R,4R,7S)-2-azabicyclo[2.2.1]hept-7-ylamino]butyl}amino)-5-chloro-2-fluoro-N-1,3-thiazol-2-ylbenzenesulfonamide] | > 550 | 60 nM |
| O=S(=O)(Nc1nccs1)c1cc(Cl)c(NCCCCN2CCCC3(CCCN3)C2)cc1F (stereo not drawn) [Ex 1-39, 5-chloro-4-{[4-(1,7-diazaspiro[4.5]dec-7-yl)butyl]amino}-2-fluoro-N-1,3-thiazol-2-ylbenzenesulfonamide] | > 250 | 130 nM |
| O=S(=O)(Nc1nccs1)c1cc(Cl)c(NCCCCN2C[C@H]3CNC[C@H]3C2)cc1F [Ex 1-22, 5-chloro-2-fluoro-4-({4-[(3aR,6aS)-hexahydropyrrolo[3,4-c]pyrrol-2(1H)-yl]butyl}amino)-N-1,3-thiazol-2-ylbenzenesulfonamide] | > 1270 | 26 nM |
| O=S(=O)(Nc1nccs1)c1cc(Cl)c(NCCCCNC2CNCC(c3ccccc3)C2)cc1F (stereo not drawn) [Ex 1-31, 5-chloro-2-fluoro-4-({4-[(5-phenylpiperidin-3-yl)amino]butyl}amino)-N-1,3-thiazol-2-ylbenzenesulfonamide] | > 890 | 37 nM |
| O=S(=O)(Nc1ncc(F)s1)c1cc(Cl)c(NCCCCN2C[C@H]3CCCN[C@H]3C2)cc1F [Ex 16-23, 5-chloro-2-fluoro-N-(5-fluoro-1,3-thiazol-2-yl)-4-({4-[(4aR,7aR)-octahydro-6H-pyrrolo[3,4-b]pyridin-6-yl]butyl}amino)benzene-sulfonamide] | > 2357 | 14 nM |
| O=S(=O)(Nc1nccs1)c1ccc(NCCCCNC[C@@H]2CCCN2)c(C(F)(F)F)c1 [Ex 7-04, 4-[(4-{[(2S)-pyrrolidin-2-ylmethyl]amino}butyl)amino]-N-1,3-thiazol-2-yl-3-(trifluoromethyl)benzenesulfonamide] | > 800 | 41 nM |
